Results: ChEMBL document CHEMBL1201862, “PubChem BioAssay data set” (2004)
Active and inactive are the calls of the source. Cut-off read from the data, not from the text of the source, for most assays here: actives have a measured EC50 and inactives only a lower limit.

What was measured:
[1] = microbe, parasite or virus in culture; assay type: functional; conditions: Mycobacterium tuberculosis
[2] = cytotoxicity toward NIH3T3 fibroblasts, dose response, counter-screen, cell-based, ATP luminescence, mouse fibroblasts (AID 2010); assay type: functional;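 note: cells exposed to compound for about 90 hours before reading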
[3] = cells; assay type: functional, cell-based
[4] = system: INS1; assay: beta cell apoptosis inhibitors, cytokine rescue, dose response, luminescence, retest (AID 449756); assay type: functional, cell-based; conditions: Rattus norvegicus;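 note: cell death triggered by IL-1 beta plus TNF-alpha plus IFN-gamma mixture; protective hits raise ATP signal compared with cytokine alone wells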
[5] = Luminescence Cell-Based Dose Response HTS to Identify Inhibitors of 5'UTR Stem-Loop Driven Prion Protein mRNA Translation in H4 Neuroglioblastoma Cells. [Related pubchem assays: 1827 (Project Summary), 1813 (Primary HTS)]; assay type: functional
[6] = inhibitors of SNCA 5'UTR-driven reporter translation, confirmation, H4 neuroglioma cells, luminescence (AID 1988); assay type: functional, cell-based
[7] = inhibitors of intracellular T. cruzi replication, confirmation, NIH3T3 host cells, beta-gal luminescence (AID 2044); assay type: functional, cell-based;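 note: intracellular parasites grown in NIH/3T3 mouse fibroblasts as host cells; luminescent beta-galactosidase reporter signal from transgenic T. cruzi replicating inside host cells; inhibitors lower the luminescence signal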
[8] = inhibitors of firefly luciferase expression or activity, dose response, H4 neuroglioma cells, luminescence (AID 1990); assay type: functional, cell-based
[9] = cells; assay type: functional, cell-based; remark: listed apart in the source
[10] = system: Vero; assay: cells; assay type: functional; conditions: Chlorocebus sabaeus

Compound: O=C(N/N=C(\c1ccccc1)c1ccccn1)c1ccccc1Cl
- CC50 [1]: 5.75 µM (active)
- EC50 [2]: 5.45 µM (active)
- EC50 [3]: 12.1 µM (active)
- AC50 [4]: 1.27 µM (active)
- EC50 [5]: 4.49 µM (active)
- EC50 [6]: 0.472 µM (active)
- EC50 [7]: 0.852 µM (active)
- EC50 [8]: 2.03 µM (active)
- EC50 [9]: > 350 µM (not active)
- CC50 [10]: 6.17 µM (active)
